Key:
male guinea pigs = assay: Ovalbumin induced pulmonary eosinophilia in male guinea pigs; format: in vivo, guinea pig; conditions: sensitized guinea pigs, 0.3, 1, 3 mg/kg oral
Method: After the quarantine period, 0.3 mL of blood samples was collected from orbital vein by retro-orbital plexus method from each individual animal and analysed on a cell analyser (ADVIA 2120, Siemens). Based on their total cell count, guinea pigs were randomized and divided into various groups. Ear pinna was marked with an indelible marking pen for identification. On day 0, weights were recorded and animals were sensitized with 50 μg of Ovalbumin (OVA) and 10 mg of alum solution (1 mL) intraperitoneally. On day 7 and day 14, the above sensitization protocol was repeated. […] On day 19, 20, and 21, after the treatment with test compound by oral gavage, 30 mins later animals were exposed to 0.5% w/v, 0.5% and 1% Ovalbumin challenge respectively. Control & sham group animals were treated with 0.5% w/v methyl cellulose (vehicle). Sham control groups were sensitized with 10 mg of alum on day 0, 7 & 14 and exposed to saline solution (SAL) with the same nebulization rate on day 19. 20 and 21. Twenty hours after last OVA challenge, airway hyperresponsiveness was measured by whole body plethysmograph against cumulative doses of methacholine challenge (75, 100, 125 & 150 μg/ml), after measuring the airway response, blood samples and BAL fluid was collected. Samples were analysed for total cell count by using neubuear chamber under microscope and differential leukocyte count was done manually.

PI3Kδ = PI3Kδ (Homo sapiens, UniProt O00329); assay: Fluorescent (HTRF) determination of PI3 kinase enzyme activity, delta isoform; format: biochemical; design: purchased Millipore (assay kit); conditions: Table 1, HTRF; read-out: IC50 (nM) Pi3Kδ
Sequence of PI3Kδ (O00329 whole entry, canonical isoform): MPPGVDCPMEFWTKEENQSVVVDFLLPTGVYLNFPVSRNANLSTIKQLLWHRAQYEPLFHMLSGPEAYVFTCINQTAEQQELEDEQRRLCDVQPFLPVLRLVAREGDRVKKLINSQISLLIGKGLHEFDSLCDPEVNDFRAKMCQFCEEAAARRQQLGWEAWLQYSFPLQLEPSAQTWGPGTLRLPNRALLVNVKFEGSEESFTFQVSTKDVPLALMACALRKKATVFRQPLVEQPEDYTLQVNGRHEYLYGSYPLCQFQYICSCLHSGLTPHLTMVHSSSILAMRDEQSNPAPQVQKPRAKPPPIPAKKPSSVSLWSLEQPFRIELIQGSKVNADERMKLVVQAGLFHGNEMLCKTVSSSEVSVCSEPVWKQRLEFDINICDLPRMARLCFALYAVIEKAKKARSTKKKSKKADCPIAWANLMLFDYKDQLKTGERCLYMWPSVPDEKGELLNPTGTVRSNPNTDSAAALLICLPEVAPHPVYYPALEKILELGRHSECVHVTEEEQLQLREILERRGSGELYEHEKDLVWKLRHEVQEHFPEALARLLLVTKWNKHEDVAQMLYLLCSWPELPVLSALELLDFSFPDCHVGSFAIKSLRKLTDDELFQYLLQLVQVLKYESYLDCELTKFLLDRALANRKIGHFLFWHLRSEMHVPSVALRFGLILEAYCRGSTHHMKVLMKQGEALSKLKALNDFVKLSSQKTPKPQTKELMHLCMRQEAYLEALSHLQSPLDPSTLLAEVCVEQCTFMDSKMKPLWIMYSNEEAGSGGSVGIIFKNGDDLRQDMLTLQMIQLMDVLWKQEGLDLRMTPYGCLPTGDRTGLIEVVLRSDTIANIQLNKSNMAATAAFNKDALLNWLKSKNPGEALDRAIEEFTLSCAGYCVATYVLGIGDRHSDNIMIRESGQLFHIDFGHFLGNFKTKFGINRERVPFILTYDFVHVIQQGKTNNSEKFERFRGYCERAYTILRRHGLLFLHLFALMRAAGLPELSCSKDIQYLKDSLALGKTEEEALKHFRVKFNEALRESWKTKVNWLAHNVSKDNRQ
Sequence of PI3Kδ (P27986 whole entry partner, canonical isoform): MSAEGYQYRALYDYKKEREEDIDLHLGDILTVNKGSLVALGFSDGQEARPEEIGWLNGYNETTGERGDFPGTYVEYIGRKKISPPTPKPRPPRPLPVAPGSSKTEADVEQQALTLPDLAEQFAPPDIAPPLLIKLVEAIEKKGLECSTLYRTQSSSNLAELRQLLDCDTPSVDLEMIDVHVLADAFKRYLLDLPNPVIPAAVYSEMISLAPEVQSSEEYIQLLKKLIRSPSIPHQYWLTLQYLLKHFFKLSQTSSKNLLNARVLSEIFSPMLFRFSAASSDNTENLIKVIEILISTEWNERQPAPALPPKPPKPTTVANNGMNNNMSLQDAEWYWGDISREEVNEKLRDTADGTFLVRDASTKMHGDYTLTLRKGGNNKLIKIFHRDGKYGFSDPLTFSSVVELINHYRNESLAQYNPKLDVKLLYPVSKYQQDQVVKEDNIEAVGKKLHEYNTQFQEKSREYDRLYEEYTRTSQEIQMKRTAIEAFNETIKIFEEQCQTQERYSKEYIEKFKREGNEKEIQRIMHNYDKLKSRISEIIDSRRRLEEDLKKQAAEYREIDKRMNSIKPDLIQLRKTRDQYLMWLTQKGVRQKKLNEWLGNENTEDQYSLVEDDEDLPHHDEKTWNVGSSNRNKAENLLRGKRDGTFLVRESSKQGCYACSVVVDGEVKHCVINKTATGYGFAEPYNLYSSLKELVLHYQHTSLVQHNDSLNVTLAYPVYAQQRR
Source text: Phosphoinositide 3 kinases (PI3K) belong to a class of lipid kinases that play a critical role in the regulation of several key cellular processes. The PI3K are capable of phosphorylating the 3-hydroxy position of phosphoinositols thereby generating second messengers involved in downstream signalling events. The homogenous time resolved fluorescence (HTRF) assay allows detection of 3,4,5-triphosphate (PIP3) formed as a result of phosphorylation of phosphotidylinositol 4,5-biphosphate (PIP2) by PI3K isoforms such as α, β, γ or δ.
PI3K isoform activity for α, β, γ or δ was determined using a PI3K human HTRF™ Assay Kit (Millipore, Billerica, Mass.) with modifications. All incubations were carried out at room temperature. Briefly, 0.5 μl of 40× inhibitor (in 100% DMSO) or 100% DMSO were added to each well of a 384-well white plate (Greiner Bio-One, Monroe, N.C.) containing 14.5 μl 1× reaction buffer /PIP2 (10 mM MgCl2, 5 mM DTT, 1.38 μM PIP2) mix with or without enzyme, followed by 5 μl/well of 400 μM ATP and incubated for an additional 30 minutes. Reaction was terminated by adding 5 μl/well stop solution (Millipore, Billerica, Mass.). […] HRTF ratio was measured on a microplate reader (BMG Labtech., Germany) at an excitation wavelength of 337 nm and emission wavelengths of 665 and 615 nm with an integration time of 400 msec counting delay of 50 msec.

Female Wistar rats = assay: Lipopolysaccharide-induced rat air pouch model of inflammation; format: in vivo; conditions: Neutrophil, oral, 1 h before LPS, pouch fluid at 6 h, read-out: ED50, reduction of neutrophil migration into the rat air pouch
Method: Female Wistar rats (175-200 g) were acclimatized for seven days prior to the start of the experiment Animals were randomly distributed to various groups based on their body weights Animals were anaesthetised with ether and subcutaneous air pouches were made by injecting 20 ml of sterile air under the skin in the intra-scapular area (day 0) and maintained with a second 10-ml injection of sterile-filtered air on day 4. On day 6, oral treatment was commenced 1 h prior to induction of inflammation by s.c. injection of LPS solution on day 6. A volume of 5-ml of LPS solution dissolved in sterile saline (100 μg/kg) was injected into each pouch. Samples of pouch fluid were taken at 6 h after administration of LPS by flushing the pouch with 5 ml of sterile saline and withdrawing 4 ml of fluid. The numbers of leukocytes present in pouch fluid was determined microscopically using a haemocytometer. Differential cell content was determined by microscopic examination of fluid smears stained with Diff-Quik.

male Balb/c mice = assay: Acute cigarette smoke induced cell infiltration in male Balb/c mice; format: in vivo, mouse; conditions: 0.3, 1, or 3 mg/kg/BID, cigarette smoke exposed mice
Source text: Animals (male Balb/c mice) are to be acclimatized for seven days prior to the start of the experiment. Animals are then to be randomly distributed to various groups based on their body weights. On day 1, mice is to be administered test compound or vehicle by oral/intranasal route and after 1 hr test compound administration animals are to be placed in whole body exposure box. On day 1 and d2 mice are exposed to the mainstream smoke of 6 cigarettes and of 8 cigarettes on day 3, and of 10 cigarettes on day 4. […] The total number of white blood cells is to be determined in BAL fluid and blood using a blood cell counter and adjusted to 1×10^6 cell/ml. Differential cell count is calculated manually. […] The number of each cell type among 300 white blood cells in the cell smear are to be determined and expressed as a percentage, and the number of neutrophils and macrophages in each BAL fluid are to be calculated. • Results: As depicted in FIGS. 7A and 7B, Compound A1 reduced macrophages and neutrophil infiltration into BALF thereby indicating a therapeutic role in chronic obstructive pulmonary diseases Assay 16: Ovalbumin-Induced Nasal Eosinophil and Neutrophil Accumulation in Mice

IC50 (PI3Kδ): 23.8 nM
Structure (SMILES): CC[C@H](Nc1ncnc2[nH]cnc12)c1oc2ccccc2c(=O)c1-c1cccc(F)c1 [Compound A1, (S)-2-(1-(9H-purin-6-ylamino)propyl)-3-(3-fluorophenyl)-4H-chromen-4-one]
airway hyperresponsiveness against methacholine challenge (male guinea pigs): significant dose dependent reduction
eosinophil infiltration into the bronchoalveolar lavage fluid (male guinea pigs): significant dose dependent reduction
ED50 (Female Wistar rats): 2.6 mg/kg
macrophages and neutrophil infiltration into BALF (male Balb/c mice): reduced

From patent US11466006B2, “Dual selective PI3 delta and gamma kinase inhibitors” (Rhizen Pharmaceuticals SA, priority 2013, dated 2022)
